Reference: patent publication US11590154B2, “Triple antibiotic fixed-dose combination products, dosing regimen, methods, and kits for treating pulmonary non-tuberculosis mycobacterial infections” (priority 2020, dated 2023)
Entries after “also recorded” stand apart in the source; their conditions may differ. Like-named read-outs stand apart in the source and are kept apart here.

Legend:
MAC [1] = test: Lung histopathology of mice infected with MAC and treated for four and eight weeks; type: in vivo, Mycobacterium avium complex; conditions: 32 sections per group
Excerpt: Lung and Spleen Histopathology of Mice Infected with MAC and Treated with FDC Components Alone and in Combination for Four and Eight Weeks of Treatment
Each of the experimental group had eight cut examined from each lung (8×2 lungs=16×2 mice=32 sections). Lungs were normal and not showing any pathology at pre-infection.

M. avium = test: MIC of antibiotics by broth microdilution, M. avium strains of Examples 3 and 4; type: cell-based, Mycobacterium avium subsp. hominissuis; conditions: 7H10 agar plates for tissue CFU counts
Protocol: Susceptibility testing was conducted using broth microdilution single and twofold dilutions as described in the literature. Suspensions were prepared by swabs on a growth plate with a sterile cotton swab, or were prepared in broth culture. The growth was transferred to a 4.5 mL of phosphate buffer solution (PBS) until the turbidity matched the density of a 0.5 McFarland standard. Suspensions were then vigorously mixed on a vortex mixer for 15 to 20 seconds. The final inoculum was prepared to a bacterial density of 10^5. The tube was inverted 8-10 times to mix the suspension.
Following both the four-week and eight-week treatment period, mice were sacrificed, and lungs and spleens were harvested for CFU counts in each tissue and compared to CFUs recovered in the baseline and vehicle-treated groups. Tissue samples were plated with and without antibiotic on 7H10 agar. Antibiotic plates were made with minimum inhibitory concentrations (MICs) of 8 μg/ml for clarithromycin, and 0.25, μg/ml for both rifabutin (RFB) and clofazimine (CFZ). Plates were made for each of clarithromycin (CLR) alone, clarithromycin plus either rifabutin (CLR+RFB) or clofazimine (CLR+CFZ) and the three-drug combination (CLR+RFB+CFZ). All plates were incubated in a microbiological incubator at 37° C. for 14 days.

[2] = Concentration vs. QTcF analysis of MAP Study data (linear mixed-effects model); type: in vivo, human
Protocol: A concentration vs. QTcF analysis was performed on a subset of data from the MAP Study where the PK sample was drawn within 1 hour of ECG extraction. The rationale for this window was based primarily on the assumption that at least for the rifabutin and clofazimine components, the long half-life would result in modest fluctuation of concentration over the dosing interval and thus the concentrations used in the analysis would enable fitting of a linear model suitable for prediction of the effect at the maximum concentration for each component (Cmax). Initially, a full model (including clarithromycin, 14-OH-clarithromycin, rifabutin, 25-O-desacetyl-rifabutin, and clofazimine) with random intercept and slopes per subject was fit and an unstructured covariance structure was used. […] Several models were then assessed with the best model retained, where only clofazimine concentration was retained as the drug component predictor of QT response.
The relationship between the individually observed clofazimine plasma concentrations and estimated placebo-adjusted ΔQTcF (i.e., ΔΔQTcF) is shown in FIG. 9. The solid line and the dotted line denotes the model-predicted mean ΔΔQTcF with 90% CI. The squares and circles denote the pairs of observed clofazimine plasma concentrations and estimated placebo-adjusted ΔQTcF by subjects for the RHB-104 and placebo treatment groups, respectively. […]

[3] = 7-day mouse tolerability and PK study; conditions: for Cavg (clofazimine): AUCtlast/24 h; for AUC(0-t): AUCtlast (clofazimine); for AUC(0-t) / Cmax: mouse plasma; for Cmax: Cmax (clofazimine)
Protocol: Sixty (60) female mice were tested, 12 per treatment groups: […]

[4] = cited from earlier work; for airway concentration relative to plasma (ELF:plasma ratio as percent): Dheda et al. 2018
[5] = system: intracellular MAC in THP-1 monocytes; test: Hollow fiber system model of MAC (HFS-MAC): microbial kill; type: cell-based, Mycobacterium avium complex; conditions: HF experiments
Protocol: The anti-mycobacterial effects of CLR, CFZ, and RFB was evaluated in the hollow fiber system model of MAC (HFS-MAC), which recapitulates the intrapulmonary concentrations of these antibiotics. The HFS-MAC allows for an assessment of the contribution of individual drug components in terms of anti-mycobacterial effects and enables exploration of potential synergy, additivity, or antagonism of different doses of drugs and combination regimens on the log-phase growth of intracellular MAC, for both microbial kill and resistance suppression.
A two-part investigation was conducted to assess the contribution of components of various FDC products comprising CLR, CFZ, and RFB in terms of depth and rate of MAC kill and suppression of the emergence of resistance. The anti-MAC activity of each antibiotic component was evaluated as one-drug alone; as two-drug combinations and the three-drug combination. For each combination (singlet, doublet or triplet), the drug concentrations were sampled from the HF fluid bathing MAC-infected cells. […] Anti-MAC activity was evaluated by kill slopes defined as the kill rate constant (and the half-life of kill [reciprocal of the kill rate constant]) as well as the maximum kill, defined as the maximum reduction in MAC CFUs and compared between the different antibiotic combinations.
MAC was grown into log-phase for 4 days, parallel with cultivation of THP-1 monocytes. The THP-1 cells were then infected with MAC overnight at a multiplicity of infection of 1:1. The THP-1 cells were washed to remove extracellular bacteria, and 20 mL of 1×10^6 (6.0 log10) cells/mL were inoculated into each HFS-MAC on Study Day 0. The peripheral compartment is the abluminal hollow fibers space that is also enclosed by the plastic, while the intraluminal space and flow path form the central compartment. […]

MAC bacteria = type: cell-based, Mycobacterium avium complex; conditions: 2×MIC; starting inoculum 5.5 log10 CFU/ml
Protocol: In vitro, efficacy was studied in static time-kill kinetics assays (at 2×minimum inhibitory concentration [MIC]), intended to mirror a desired peak serum concentration for all three antibiotics using an established assay. All experiments were performed with a starting inoculum of 5.5 log10 CFU/ml MAC bacteria, higher than the bacterial load expected in the airway secretions of patients with mild nodular-bronchiectatic disease due to MAC.

M. avium 104 biofilm = test: In vitro biofilm model of infection; type: cell-based, Mycobacterium avium subsp. hominissuis; conditions: mean ± SD; CLR 1.9-4.3 μg/mL, RFB 0.04 μg/mL, CFZ 0.0005 μg/mL
MAC [6] = test: MIC of the MAC strains used in the HFS-MAC studies; type: cell-based, Mycobacterium avium complex; conditions: Mycobacterium avium
Protocol: The MAC strain used in the HFS-MAC studies was ATCC strain 700898. The study center also had 5 well-characterized clinical strains that have undergone whole-genome sequencing and habituation to the HFS-MAC. Stock cultures of MAC were stored at −80° C. in Middlebrook 7H9 broth with 10% OADC and 10% glycerol. THP-1 monocytes were stored in liquid nitrogen and have been habituated for the HFS-MAC growth conditions.

NTM = conditions: mouse models of systemic and lung infection; preclinical literature; cited from earlier work
[7] = female, C57BL/6, mouse, plasma, po, 10 mg/kg, Day 1, CFZ 10 mg/kg alone, oral
[8] = female, C57BL/6, mouse, plasma, po, 10 mg/kg, Day 7, CFZ 10 mg/kg alone, oral once daily
[9] = female, C57BL/6, mouse, plasma, po, 30 mg/kg, Day 1, CFZ 30 mg/kg alone, oral
[10] = female, C57BL/6, mouse, plasma, po, 30 mg/kg, Day 7, CFZ 30 mg/kg alone, oral once daily
[11] = female, C57BL/6, mouse, plasma, po, 30 mg/kg, Day 7, CFZ 30 mg/kg with CLR 200 mg/kg and RFB 60 mg/kg, oral once daily

Which results are given for CC(C)/N=c1\cc2n(-c3ccc(Cl)cc3)c3ccccc3nc-2cc1Nc1ccc(Cl)cc1 [Clofazimine, clofazimine]?
Lung Histopathology Findings (MAC [1]): Mild diffuse congestion; also recorded: Minimal multi-focus congestion of lymphocytes and plasma cells; also recorded: Granulomas in multiple locations with mild number of bacteria; also recorded: Infiltrates into the bronchiolar walls; minimum inhibitory concentrations (MICs) used for antibiotic plates (M. avium): 0.25 µg/mL; treatment effect-specific intercept ([2]; 90% CI 0.76 to 4.29): 2.52 ms; estimated population slope of the concentration-QTc relationship ([2]; clofazimine plasma concentration, RHB-104 MAP Study, 90% CI 0.0337 to 0.0410): 0.037 ms per ng/mL; Cavg (clofazimine) ([3]; Day 7, CFZ 10 mg/kg alone): 223 ng/mL; Cavg (clofazimine) ([3]; Day 7, CFZ 30 mg/kg alone): 411 ng/mL; Cavg (clofazimine) ([3]; Day 7, CFZ 30 mg/kg with CLR 200 mg/kg and RFB 60 mg/kg): 829 ng/mL; Tmax ([3]; female, C57BL/6, mouse, in vivo, po, 10 mg/kg, tmax (clofazimine)): 4 h; AUC(0-t) ([3]; female, C57BL/6, mouse, in vivo, po, 30 mg/kg, Day 1, CFZ 30 mg/kg with CLR 200 mg/kg and RFB 60 mg/kg, oral): 2230 ng·h/mL; AUC(0-t) [3, 7]: 2150 ng·h/mL; AUC(0-t) [3, 8]: 5340 ng·h/mL; Cmax [3, 7]: 108 ng/mL; Cmax [3, 8]: 277 ng/mL; AUC(0-t) [3, 9]: 3690 ng·h/mL; AUC(0-t) [3, 10]: 9870 ng·h/mL; AUC(0-t) [3, 11]: 19900 ng·h/mL; Cmax [3, 9]: 181 ng/mL; Cmax ([3]; female, C57BL/6, mouse, plasma, po, 30 mg/kg, Day 1, CFZ 30 mg/kg with CLR 200 mg/kg and RFB 60 mg/kg, oral): 152 ng/mL; Cmax [3, 10]: 460 ng/mL; Cmax [3, 11]: 957 ng/mL; airway concentration relative to plasma (ELF:plasma ratio as percent) [4]: approximately 0.19%; airway concentration relative to plasma (ELF:plasma ratio as percent) ([4]; listed as CFZ): approximately 0.2%; ELF:plasma ratio ([4]; epithelial lining fluid to total plasma/serum): 0.0019; half-life ([4]; human, in vivo): > 100 days; effect on CFUs / MAC killing, summary [5]: CFU counts increased; activity as single drugs (MAC bacteria): bacteriostatic activity; Colony Forming Unit Concentration, Four Days (M. avium 104 biofilm): 1.91 ± 0.6 × 10^7 CFU/mL; Colony Forming Unit Concentration, Seven Days (M. avium 104 biofilm): 1.42 ± 0.5 × 10^7 CFU/mL; MIC (MAC [6]; Clinical strain #1): 0.25 µg/mL; MIC (MAC [6]; Clinical strain #2): 0.25 µg/mL; MIC (MAC [6]; Clinical strain #3): 0.25 µg/mL; MIC (MAC [6]; Clinical strain #4): 0.25 µg/mL; MIC (MAC [6]; Clinical strain #5): 0.25 µg/mL; Effective Dose (NTM): 20 mg/kg/day
